Where two headings read alike, the source gives them in different places.
System: respiratory epithelial cells
Conditions: for expression level change, AQP5 (Probe ID 91275_at) / expression level change, ESTs AI758223 (Probe ID 76769_at) / expression level change, ESTs AI927079 (Probe ID 88716_at) / expression level change, MGC14128 (Probe ID 89360_at) / expression level change, PADI1 (Probe ID 81926_at) / expression level change, ST6GalNAcI (Probe ID 89741_at) / expression level change, CNTN1 (Probe ID 88239_i_at) / expression level change, DKFZP434I1735 (Probe ID 77516_r_at) / expression level change, FLJ10718 (Probe ID 69750_at) / expression level change, LGALS1 (Probe ID 80667_f_at) / expression level change, MGC14128 (Probe ID 86024_at): IL-13 stimulation
[1] = IL-13 vs no stimulation, lot 1 Day 3 AI
[2] = IL-13 vs no stimulation, lot 1 Day 3 IMM

Substance: IL-13: human IL-13 (Peprotech, Inc.) added to the medium at 50 ng/mL to stimulate respiratory epithelial cells
- SLC21A12 (87860_s_at) expression change upon IL-13 stimulation (HG-U95E, lot 2, Day 7): 2.8
- rab11-FIP1 (89338_at) expression change upon IL-13 stimulation (HG-U95E, lot 2, Day 7): 14.6
- AA199856 (72960_s_at) expression change upon IL-13 stimulation (HG-U95E, lot 2, Day 7, AI): 5.5
- AA806114 (80826_at) expression change upon IL-13 stimulation (HG-U95E, lot 2, Day 7, AI): 2
- AI803648 (89255_at) expression change upon IL-13 stimulation (HG-U95E, lot 2, Day 7, AI): 2.4
- AI859144, KIAA1127 (77546_at) expression change upon IL-13 stimulation (HG-U95E, lot 2, Day 7, AI): 9.8
- AI984061 (89834_at) expression change upon IL-13 stimulation (HG-U95E, lot 2, Day 7, AI): 3.1
- AW024819 (72867_at) expression change upon IL-13 stimulation (HG-U95E, lot 2, Day 7, AI): 2.3
- BAL (69619_at) expression change upon IL-13 stimulation (HG-U95E, lot 2, Day 7, AI): 2.4
- BCAT1 (72962_at) expression change upon IL-13 stimulation (HG-U95E, lot 2, Day 7, AI): 3.7
- CLDN1 (77660_at) expression change upon IL-13 stimulation (HG-U95E, lot 2, Day 7, AI): 5.4
- EHF (8S090_at) expression change upon IL-13 stimulation (HG-U95E, lot 2, Day 7, AI): 3
- EHF (85092_g_at) expression change upon IL-13 stimulation (HG-U95E, lot 2, Day 7, AI): 7
- EPPK1 (86507_at) expression change upon IL-13 stimulation (HG-U95E, lot 2, Day 7, AI): 3.2
- FLJ20281 (83376_at) expression change upon IL-13 stimulation (HG-U95E, lot 2, Day 7, AI): 2.6
- FLJ20989 (91420_at) expression change upon IL-13 stimulation (HG-U95E, lot 2, Day 7, AI): 2.1
- FLJ21415 (89902_at) expression change upon IL-13 stimulation (HG-U95E, lot 2, Day 7, AI): 2.7
- FLJ22833 (67329_at) expression change upon IL-13 stimulation (HG-U95E, lot 2, Day 7, AI): 4.2
- GCNT3 (77751_at) expression change upon IL-13 stimulation (HG-U95E, lot 2, Day 7, AI): 2
- KIAA1685 (83541_at) expression change upon IL-13 stimulation (HG-U95E, lot 2, Day 7, AI): 2
- MASL1 (89651_at) expression change upon IL-13 stimulation (HG-U95E, lot 2, Day 7, AI): 4.2
- MFHAS1 (87816_g_at) expression change upon IL-13 stimulation (HG-U95E, lot 2, Day 7, AI): 2.7
- RIG-1 (77749_at) expression change upon IL-13 stimulation (HG-U95E, lot 2, Day 7, AI): 2.3
- SCYA26 (90189_at) expression change upon IL-13 stimulation (HG-U95E, lot 2, Day 7, AI): 29.8
- expression level change, AQP5 (Probe ID 91275_at) (lot 1, Day 3, AI): −7.7
- expression level change, ESTs AI758223 (Probe ID 76769_at) (lot 1, Day 3, AI): −3.6
- expression level change, ESTs AI927079 (Probe ID 88716_at) (lot 1, Day 3, AI): −2.7
- expression level change, MGC14128 (Probe ID 89360_at) (lot 1, Day 3, AI): −2.1
- expression level change, PADI1 (Probe ID 81926_at) (lot 1, Day 3, AI): −6.1
- expression level change, ST6GalNAcI (Probe ID 89741_at) (lot 1, Day 3, AI): −2.5
- expression level change, AQP5 (Probe ID 91275_at) (lot 1, Day 3, IMM): −3.8
- expression level change, ESTs AI758223 (Probe ID 76769_at) (lot 1, Day 3, IMM): −2.1
- expression level change, MGC14128 (Probe ID 89360_at) (lot 1, Day 3, IMM): −2.6
- expression level change, AQP5 (Probe ID 91275_at) (lot 1, Day 7, AI): −3.7
- expression level change, CNTN1 (Probe ID 88239_i_at) (lot 1, Day 7, AI): −2
- expression level change, DKFZP434I1735 (Probe ID 77516_r_at) (lot 1, Day 7, AI): −2
- expression level change, ESTs AI758223 (Probe ID 76769_at) (lot 1, Day 7, AI): −14.8
- expression level change, ESTs AI927079 (Probe ID 88716_at) (lot 1, Day 7, AI): −12.9
- expression level change, FLJ10718 (Probe ID 69750_at) (lot 1, Day 7, AI): −3
- expression level change, LGALS1 (Probe ID 80667_f_at) (lot 1, Day 7, AI): −7.2
- expression level change, MGC14128 (Probe ID 86024_at) (lot 1, Day 7, AI): −4
- expression level change, MGC14128 (Probe ID 89360_at) (lot 1, Day 7, AI): −3.8
- expression level change, PADI1 (Probe ID 81926_at) (lot 1, Day 7, AI): −6.1
- expression level change, ST6GalNAcI (Probe ID 89741_at) (lot 1, Day 7, AI): −2.4
- expression level change, CNTN1 (Probe ID 88239_i_at) (lot 1, Day 7, IMM): −2.7
- expression level change, ESTs AI758223 (Probe ID 76769_at) (lot 1, Day 7, IMM): −15.7
- expression level change, ESTs AI927079 (Probe ID 88716_at) (lot 1, Day 7, IMM): −10.7
- expression level change, FLJ10718 (Probe ID 69750_at) (lot 1, Day 7, IMM): −4.7
- expression level change, LGALS1 (Probe ID 80667_f_at) (lot 1, Day 7, IMM): −5.2
- expression level change, MGC14128 (Probe ID 86024_at) (lot 1, Day 7, IMM): −2.9
- expression level change, MGC14128 (Probe ID 89360_at) (lot 1, Day 7, IMM): −2.9
- expression level change, PADI1 (Probe ID 81926_at) (lot 1, Day 7, IMM): −7.6
- expression level change, ST6GalNAcI (Probe ID 89741_at) (lot 1, Day 7, IMM): −4.3
- expression level change, AQP5 (Probe ID 91275_at) (lot 2, Day 3, AI): −14.3
- expression level change, CNTN1 (Probe ID 88239_i_at) (lot 2, Day 3, AI): −3.8
- expression level change, ESTs AI758223 (Probe ID 76769_at) (lot 2, Day 3, AI): −9.6
- expression level change, ESTs AI927079 (Probe ID 88716_at) (lot 2, Day 3, AI): −7
- expression level change, LGALS1 (Probe ID 80667_f_at) (lot 2, Day 3, AI): −2.5
- expression level change, MGC14128 (Probe ID 86024_at) (lot 2, Day 3, AI): −2.4
- expression level change, PADI1 (Probe ID 81926_at) (lot 2, Day 3, AI): −6.7
- expression level change, ST6GalNAcI (Probe ID 89741_at) (lot 2, Day 3, AI): −8.8
- expression level change, AQP5 (Probe ID 91275_at) (lot 2, Day 7, AI): −7.7
- expression level change, CNTN1 (Probe ID 88239_i_at) (lot 2, Day 7, AI): −3.3
- expression level change, DKFZP434I1735 (Probe ID 77516_r_at) (lot 2, Day 7, AI): −2.7
- expression level change, ESTs AI927079 (Probe ID 88716_at) (lot 2, Day 7, AI): −18.5
- expression level change, FLJ10718 (Probe ID 69750_at) (lot 2, Day 7, AI): −3.6
- expression level change, LGALS1 (Probe ID 80667_f_at) (lot 2, Day 7, AI): −8.2
- expression level change, MGC14128 (Probe ID 86024_at) (lot 2, Day 7, AI): −2.8
- expression level change, MGC14128 (Probe ID 89360_at) (lot 2, Day 7, AI): −4
- expression level change, PADI1 (Probe ID 81926_at) (lot 2, Day 7, AI): −6.8
- expression level change, ST6GalNAcI (Probe ID 89741_at) (lot 2, Day 7, AI): −8.4
- AKR1B10 (37482_at) expression change [1]: −6.5
- AKR1C3 (37399_at) expression change [1]: −3.3
- AREG (34898_at) expression change [1]: −2.3
- BDKRB2 (39310_at) expression change [1]: −2.1
- BENE (33331_at) expression change [1]: −3.7
- CTSL2 (40717_at) expression change [1]: −2.8
- DUSP1 (1005_at) expression change [1]: −2.8
- GABRE (34280_at) expression change [1]: −2
- GPNMB (38379_at) expression change [1]: −3.3
- IGFBP3 (1586_at) expression change [1]: −2.4
- IGFBP3 (37319_at) expression change [1]: −2.7
- IGFBP6 (1736_at) expression change [1]: −3.6
- IMPA2 (36496_at) expression change [1]: −2.8
- LOH11CR2A (38151_at) expression change [1]: −2.1
- MMP9 (31859_at) expression change [1]: −25.5
- MMP10 (1006_at) expression change [1]: −6.3
- MSMB (32149_at) expression change [1]: −8.6
- NDRG1 (36933_at) expression change [1]: −4.9
- NOTCH3 (38750_at) expression change [1]: −2.9
- PFTK1 (36502_at) expression change [1]: −3.9
- PSCA (33792_at) expression change [1]: −6
- RARRES1 (1042_at) expression change [1]: −3.1
- RARRES1 (33505_at) expression change [1]: −2.2
- RDC1 (34288_at) expression change [1]: −4.1
- S100A8 (41096_at) expression change [1]: −5.4
- SEC14L2 (32817_at) expression change [1]: −2.1
- SERPINB5 (862_at) expression change [1]: −2.2
- SERPINE1 (672_at) expression change [1]: −12
- SERPINE1 (38125_at) expression change [1]: −6.9
- STK39 (39120_at) expression change [1]: −3.9
- c-fos (1915_s_at) expression change [1]: −2
- c-fos (1916_s_at) expression change [1]: −2.2
- AKR1B10 (37482_at) expression change [2]: −2.8
- APM2 (32527_at) expression change [2]: −2.1
- AREG (34898_at) expression change [2]: −4.2

— patent publication US20050208496A1, “Methods of testing for bronchial asthma or chronic obstructive pulmonary disease” (Genox Research, Inc., priority 2002, published 2005)
